Assay results from patent US5157019A, “Serine protease inhibitors” (Monsanto Company, priority 1991, dated 1992).
Ends that are not written are not given here.

Experiments:
Thrombin = Thrombin (Homo sapiens, UniProt P00734); assay: Coagulation inhibition assay, thrombin (fibrinogen clotting end point); assay type: biochemical; details: 40 μM peptide
Experimental: Inhibitory activity of subject peptides toward thrombin and Factor Xa were done in the following manner. Mix 100 μL Thrombin (3.125 units/ml, 1.125 μg/ml) in TAB with […] Peptide in TAB and incubate for 1 minute at 37° C. Add 50 μL Fibrinogen (2 mg/ml)and measure clotting end point (in seconds) in a Fibrometer (BBL) TAB=Thrombin Assay Buffer: 0.15M NaCl, 6.6 gm/L PEG-6000, 0.01M Imidazole, 0.01 CaCl2, pH 7.4

Factor D = target: T1, Factor D (Homo sapiens, UniProt P00746); assay: Factor D assay by inhibition of fluid phase Factor B activation; assay type: biochemical; details: Table X; μM concentration at which protease was inhibited 50%; read-out: IC50 D
T1 construct: prepared from pooled human plasma; from tissue; host or cells: pooled human plasma
Experimental: (§1) Highly purified C3, C4, Factor D, Factor B, and C1s were prepared from pooled human plasma. Factors B and C4 were radiolabeled by periodate oxidation of sialic acid residues, followed by reduction with tritiated sodium borohydride. In a representative experiment, a solution of 1.2 mg of factor B in 1.8 ml of PBS was treated with 70 μl of 0.1M NaIO4. After 10 min incubation on ice, excess reagent was removed by filtration over "SEPHADEX®" which is a matrix for gel chromatography (1.0 cm×20 cm). To the protein pool was added 60 μl of NaB[^3 H]4 solution and incubated for 30 min on ice. Labeled protein was separated from excess reagent by desalting or dialysis. Human C4 was radiolabeled in the same manner. Radiolabeled proteins were stored at -70° C. in PBS. The specific radioactivity of ^3 H factor B was about 10,000 CPM/μg and that of ^3 H-C4 was 5,000 CPM/μg.
The effect of the peptides on Factor D-dependent cleavage of factor B was studied by incubating 3.5 μg of Factor B, 1.5 μg of C3(H2 O) and 0.2 μl of Factor D at 37° C. for 60 min in Mg-PBS containing different concentrations of inhibitor. Uncleaved Factor B and its fragments, Ba and Bb, were first separated by SDS-PAGE and analyzed as described above. The percent cleavage of the reaction was calculated as follows: [formula]
B=radioactivity (CPM) of uncleaved factor B
Bb=radioactivity (CPM) of fragment Bb
Ba=radioactivity (CPM) of fragment Ba
(§2) Electrophoresis was carried out under reducing conditions in the Laemmli system using slab gel of 8% polyacrylamide. The gels were stained and destained (Fairbanks et al. Biochemistry (1971) 10:2606).
(§3) The percent inhibition of the reaction was calculated according to the following relationship: [formula]
(§4) A: % cleavage without inhibitor
(§5) B: % cleavage with inhibitor
(§6) The concentration inducing 50% inhibition was obtained by plotting the percent inhibition on a probability graph (National Blank Book Co., No. 12-083) on the ordinate and the log of the inhibitor concentration on the abscissa. From this graph, a 50% inhibition concentration IC50 was obtained and this value was employed to express the activity.

C1s = target: T2, C1s (Homo sapiens, UniProt P09871); assay: C1s assay by inhibition of fluid phase C4 activation; assay type: biochemical; details: Table X; μM concentration at which protease was inhibited 50%; read-out: IC50 C1S
T2 construct: prepared from pooled human plasma; from tissue; host or cells: pooled human plasma
T2 sequence (P09871 16-688): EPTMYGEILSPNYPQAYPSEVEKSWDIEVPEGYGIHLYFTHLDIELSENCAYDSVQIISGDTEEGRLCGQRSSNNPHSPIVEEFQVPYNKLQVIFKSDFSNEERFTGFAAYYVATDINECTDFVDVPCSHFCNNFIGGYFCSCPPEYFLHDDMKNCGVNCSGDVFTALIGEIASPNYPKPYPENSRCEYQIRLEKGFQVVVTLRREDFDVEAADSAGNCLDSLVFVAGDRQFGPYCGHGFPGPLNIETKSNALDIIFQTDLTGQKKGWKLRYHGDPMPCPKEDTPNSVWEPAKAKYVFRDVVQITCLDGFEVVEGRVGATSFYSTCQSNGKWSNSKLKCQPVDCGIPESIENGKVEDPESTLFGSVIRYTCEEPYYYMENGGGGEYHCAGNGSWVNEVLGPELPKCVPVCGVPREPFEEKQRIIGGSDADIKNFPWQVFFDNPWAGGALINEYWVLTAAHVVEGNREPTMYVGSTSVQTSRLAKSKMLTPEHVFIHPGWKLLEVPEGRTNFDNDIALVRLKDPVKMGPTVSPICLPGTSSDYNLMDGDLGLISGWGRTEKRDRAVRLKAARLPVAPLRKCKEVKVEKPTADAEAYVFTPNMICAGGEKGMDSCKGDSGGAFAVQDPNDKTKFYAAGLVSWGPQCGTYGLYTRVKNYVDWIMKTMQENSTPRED
Experimental: as §1
The cleavage of C4 was studied by incubating 10 μg of tritiated C4 with 3-5 ng of C1s at 37° C. for 30 min in 100 μl of PBS (pH 7.10) containing different concentrations of inhibitor. The reaction was stopped by the addition of 2-mercaptoethanol. The extent of cleavage was analyzed by SDS-polyacrylamide gel electrophoresis. The stained bands corresponding to C4α and C4α' were cut out and sliced. The radioactivity of the fragments was measured by liquid scintillation counting. The percent cleavage of the reaction was calculated as follows: [formula]
as §2, §3, §4, §5, §6

Cathepsin G = target: T3, Cathepsin G (Homo sapiens, UniProt P08311); assay: Cathepsin G assay (Suc-Ala-Ala-Pro-Phe-pNA, 410 nm); assay type: biochemical
T3 construct: purchased Elastin Products Company (EPC) SG-45
T3 sequence (P08311 21-255): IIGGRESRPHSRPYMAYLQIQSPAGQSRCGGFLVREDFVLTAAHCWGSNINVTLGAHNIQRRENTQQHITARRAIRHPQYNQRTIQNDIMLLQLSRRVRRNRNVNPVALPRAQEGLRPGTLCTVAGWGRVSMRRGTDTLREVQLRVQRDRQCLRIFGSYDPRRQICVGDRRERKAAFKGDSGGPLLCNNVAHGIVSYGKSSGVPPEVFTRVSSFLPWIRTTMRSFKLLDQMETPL
Experimental: Reference: Elastin Products Company (EPC) technical data sheet, cathepsin G, No. SG-45.
Method: Spectrophotometric rate determination
A) Buffer; 0.1M Tris, pH 7.5 at 25° C.
B) Substrate; 60 mM Suc-Ala-Ala-Pro-Phe-pNA obtained from Sigma Chemical Company. Solution prepared by dissolving 50 mg substrate in 1.3 ml of 1-methyl-2-pyrrolidinone. Stored at 5° C.
C) Peptide Inhibitors; 200 μM HCl salt. Depending on peptide solubility, dissolved in buffer or DMSO and then buffer added for a final concentration of 10% DMSO.
D) Enzyme; Cathepsin G, EPC SG-45, lot 85117 used for all assays, 0.0077 mg protein per mg solid determined by supplier by Bradford method. Enzyme was dissolved in buffer at a concentration of approx. 5 mg/ml solid. Solution stored on ice, used within 2 hours.
Pipetted the following into semi-micro quartz cuvettes: 0.3 ml buffer, 0.15 ml peptide solution and 0.5 ml of substrate solution. Equilibrate for 5 min. at 25° C., then add 0.05 ml of enzyme solution and monitor the release of pNA spectrophotometrically at 410 nm for at least 3 minutes. The controls contain either 0.45 ml of buffer or 20% DMSO in buffer (for a final concentration of 10% DMSO).
The rate (O.D./min) is obtained as an average over 3 minutes. [formula]

complement activation = assay: Reverse passive arthus reaction (RPAR), histopathology of injection sites; assay type: in vivo, guinea pigs; parameters: key: 0 indicating no acute inflamation; 1 indication minimal acute inflammation; 2 indicating mild acute inflammation; 3 indicating moderate acute inflammation; details: for Degree of inflammation, mean score, protease inhibitor only: guinea pig, intradermal injection of peptide without antibody
Experimental: These exemplary peptide inhibitors (peptides 13, 7 and 27) were assayed for in vivo activity in inhibiting complement activation using the reverse passive arthus reaction (RPAR). RPAR is a model of complement-mediated damage due to activation via interaction with antigen/antibody complexes. Female guinea pigs (400 gm) were pretreated intracardially with bovine serum albumin and Evans blue dye. Ninety minutes later they received bilateral intradermal injections of peptide inhibitor or control material in the thoracolumbar region. Injection sites were excised postmortem and fixed in 10% buffered formalin for pathological evaluation. The peptides were administered to obtain an initial level of […] in the circulatory system.
The histopathological results are outlined below. The degree of inflammation was scored as follows: 0 indicating no acute inflamation; 1 indication minimal acute inflammation; 2 indicating mild acute inflammation; and 3 indicating moderate acute inflammation.

[1] = test system: alternative pathway of complement activation; assay: Hemolytic assay, alternative pathway (lysis of ER cells by normal human serum); assay type: cell-based; details: 25 μM peptide
Method: (§7) METHOD: Complement activation of the classical and alternative pathways is measured by lysis of EA and ER cells (respectively) after incubation with serum. Hemolysis is quantitated spectrophotometrically by the absorbance of hemoglobin at 415 nm.
ER cells: Rabbit erythrocytes stored at 10^9 in Alsevers buffer, 0.01% sodium azide.^2
(§8) h NHS: Normal human serum incubated at 56° C. for 1 hour to inactivate complement components.
(§9) B) Wash EA cell (classical pathway) and ER cell (alternative pathway) suspensions with at least an equal volume of PBS^++ (Phosphate buffered saline, with 0.15 mM Ca^++ and 0.5 mM Mg^++). Spin at 2000 rpm for 5 minutes, decant supernatant and resuspend cells. Wash cells twice or until supernatant is obviously clear of any lysed cellular debris.
C) After the final wash, cells should be resuspended in an appropriate volume of PBS^++ so there are approximately 5×10^8 cells/ml. Dilute cell suspension 1:30 with distilled water and determine the absorbance at 541 nm spectrophotometrically. An adsorbance of 0.175 indicates 5×10^8 cells/ml. Adjust the volume of the cell suspension accordingly with PBS^++ to get a final concentration of 2.5×10^8 cells/ml. […]
(§10) G) Read absorbance (Abs) of the supernatant at 415 nm to determine cell lysis. […]
(§11) c) Dilute NHS and h NHS initially so that 100 ul of that dilution in a total of 250 μl will equal the final dilution calculated in the titer assay. […]

[2] = test system: classical pathway of complement activation; assay: Hemolytic assay, classical pathway (lysis of EA cells by normal human serum); assay type: cell-based; details: 25 μM peptide
Method: as §7
EA cells: Sheep erythrocyte-antibody conjugates stored at 10^9 cells/ml in DGVB (Veronal buffer plus Ca^++ and Mg,^++, 2.5% w/v dextrose and 0.05% w/v gelatin, 0.01% sodium azide)^1
as §8, §9
C) After the final wash, cells should be resuspended in an appropriate volume of PBS^++ so there are approximately 5×10^8 cells/ml. Dilute cell suspension 1:30 with distilled water and determine the absorbance at 541 nm spectrophotometrically. An adsorbance of 0.175 indicates 5×10^8 cells/ml. […]
as §10, §11

Plasmin = Plasmin (Homo sapiens, UniProt P00747); assay: Plasmin assay (S2251); assay type: biochemical; details: 200 μM peptide
Experimental: Substrate H-D-Val-Leu-Lys-pNA·HCl (S2251, Kabi), 10 mM in deionized water; may be frozen for future use.
Buffer 50 mM Tris·HCl, pH 7.4 containing 0.01% Tween 80
Inhibitor 400 μM in deionized water
Enzyme Plasmin; 0.5 U/ml in buffer (Cat #P-4895, Sigma Chemical Co., St. Louis, Mo.)
Mix 220 μL buffer, 200 μL deionized water (control) or inhibitor solution and 40 μL substrate. Incubate for 2 min at 37° C. Transfer 230 μL to a microcuvette, add 40 μL of enzyme, mix, and measure rate spectrophotometrically at 405 nm for about 5 min. Inhibition (%) is calculated in the same manner as in previous assays.

HUMAN SPUTUM ELASTASE = target: T4, HUMAN SPUTUM ELASTASE (Homo sapiens, UniProt P08246); assay: Elastase assay (MeO-Suc-Ala-Pro-Val-pNA); assay type: biochemical; details: 200 μM peptide
T4 construct: HUMAN SPUTUM ELASTASE; purchased Elastin Products Company SE563; host or cells: human sputum (from the product name)
T4 sequence (P08246 30-267): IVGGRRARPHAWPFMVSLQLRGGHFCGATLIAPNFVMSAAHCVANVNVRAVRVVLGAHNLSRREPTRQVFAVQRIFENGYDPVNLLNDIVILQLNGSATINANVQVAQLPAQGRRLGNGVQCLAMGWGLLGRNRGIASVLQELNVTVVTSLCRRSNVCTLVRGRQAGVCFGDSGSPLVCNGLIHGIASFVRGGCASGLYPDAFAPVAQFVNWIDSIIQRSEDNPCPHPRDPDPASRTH
Experimental: Enzyme used is "HUMAN SPUTUM ELASTASE®" which is an enzyme which is the target protease for α1 antitrypsin from Elastin Products Company, Catalog No. SE563, lot 85071, 875 units/mg as determined by supplier with N-Suc-Ala-Ala-Ala-pNA; prepared at 0.2 mg/mL in 0.1M Tris·HCl, pH 8.8 at 37 degrees C. An amount of enzyme is used to give approximately 0.1 change in Absorbance/min; which in this assay was 1 μg.
The substrate is MeO-Suc-Ala-Pro-Val-pNA, Sigma Catalog No. M-4765. About 50 mg of the substrate is dissolved in 1 ml of 1-methyl-2-pyrrolidinone and diluted to 33 mls. with 0.1M Tris-HCl, pH 7.5, containing 0.5M NaCl, and 0.01 wt % sodium azide.
Peptide solutions are prepared at 500 μM, using 1.5% of the final volume of DMSO first and diluting with distilled water (DW) or 0.1M Tris.HCl, pH 8.8 at 37 degrees C. [formula]

[3] = 200 μM peptide (head of Table IX)

T1 sequence (P00746 26-253): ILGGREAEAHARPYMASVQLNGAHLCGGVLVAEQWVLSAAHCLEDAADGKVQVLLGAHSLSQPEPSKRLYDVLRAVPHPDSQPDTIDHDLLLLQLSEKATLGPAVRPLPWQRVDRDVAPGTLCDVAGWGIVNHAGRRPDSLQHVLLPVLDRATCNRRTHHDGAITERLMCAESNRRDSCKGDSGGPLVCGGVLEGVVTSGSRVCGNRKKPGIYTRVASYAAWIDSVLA
Sequence of Plasmin (P00747 581-810 limits assumed): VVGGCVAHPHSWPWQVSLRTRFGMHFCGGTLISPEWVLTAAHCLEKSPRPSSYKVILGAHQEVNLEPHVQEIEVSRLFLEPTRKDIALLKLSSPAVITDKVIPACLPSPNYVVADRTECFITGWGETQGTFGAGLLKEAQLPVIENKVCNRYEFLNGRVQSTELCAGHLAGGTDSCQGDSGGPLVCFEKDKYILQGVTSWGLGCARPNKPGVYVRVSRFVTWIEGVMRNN
Sequence of Plasmin (P00747 97-580 partner limits assumed): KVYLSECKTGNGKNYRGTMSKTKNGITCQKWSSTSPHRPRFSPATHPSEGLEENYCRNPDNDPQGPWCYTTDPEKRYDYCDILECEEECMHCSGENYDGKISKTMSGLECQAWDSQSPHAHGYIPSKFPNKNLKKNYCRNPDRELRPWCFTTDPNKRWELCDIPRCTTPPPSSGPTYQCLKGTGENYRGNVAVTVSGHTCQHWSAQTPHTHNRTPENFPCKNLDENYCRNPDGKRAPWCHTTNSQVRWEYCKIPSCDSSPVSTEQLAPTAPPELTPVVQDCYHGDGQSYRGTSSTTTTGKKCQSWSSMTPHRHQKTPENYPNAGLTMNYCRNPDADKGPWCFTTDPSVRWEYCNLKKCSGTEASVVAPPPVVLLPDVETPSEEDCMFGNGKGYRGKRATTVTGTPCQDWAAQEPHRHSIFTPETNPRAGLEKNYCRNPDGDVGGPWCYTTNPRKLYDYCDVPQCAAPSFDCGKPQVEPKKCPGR

Row | Substance | inhibition at 40 µM (Thrombin) [%] | IC50 (Factor D) [µM] | IC50 (C1s) [µM] | inhibition at 200 µM (Cathepsin G; [3]) [%] | Degree of inflammation, mean score, protease inhibitor only (complement activation) | % inhibition, alternative pathway (AP) [1] [%] | % inhibition, classical pathway (CP) [2] [%] | Degree of inflammation, mean score, antibody plus protease inhibitor (complement activation; guinea pig RPAR, intradermal anti-bovine serum albumin plus peptide, antibody only mean score 3) | Cathepsin G % inhibition (Cathepsin G; 100 μM peptide (Tables VI, VIII)) [%] | Cathepsin G Inhibition (Cathepsin G; [3]) [%] | Plasmin % inhibition (Plasmin) [%] | Elastase Inhibition (HUMAN SPUTUM ELASTASE) [%]
1 | AGRSLNPNRVTFKANRPFLVFI [Peptide 7] | 50 | 145 | 39 | 28 | 0 | – | – | – | – | – | – | –
2 | GVRGPRVVERVTFKANRPFLVFI-OH [Peptide 13] | – | – | – | – | 0 | 61 | 75 | 1 | – | – | – | –
3 | LRYNKPFILVLFETPGNSLVFLGRISNPATK [Peptide 23] | – | – | – | – | – | – | – | – | 0 | 0 | 67 | 0
